# Key:
# [1] = tested on: HeLa cells; assay type: cell-based; details: 10 μM peptide, 60 min at 37°C, hierarchical cluster analysis, Fig. 4a
# [2] = bulk, off-chip studies; cited from earlier work
# [3] = at high concentrations; cited from earlier work
# [4] = cited from earlier work
Substance,normalized fluorescence of the largest cluster (subpopulation) [1],permeability efficiency on average compared to OWRWR and RWRWR [2],cytotoxicity [3],stability under intracellular conditions compared to TAT and ARG [4]
FAM-RRRRRRRRR [ARG],~ 1200,higher permeability efficiencies,,
FAM-YGRKKRRQRRR [TAT],,higher permeability efficiencies,high cytotoxicity,
Ac-OWVRVpGO(FAM)WIRQ-NH2 [OWRWR],,,,enhanced stability
